Activity calls are given as the source filed them.
How the values were obtained:
[1] = biological target: Serine/threonine-protein kinase 24 (Homo sapiens, UniProt Q9Y6E0)
[2] = biological target: Serine/threonine-protein kinase pim-2 (Homo sapiens, UniProt Q9P1W9)
[3] = biological target: G protein-coupled receptor kinase 6 (Homo sapiens, UniProt P43250)
[4] = biological target: MAP kinase-activated protein kinase 3 (Homo sapiens, UniProt Q16644)
[5] = biological target: High affinity nerve growth factor receptor (Homo sapiens, UniProt P04629)
Sequence of High affinity nerve growth factor receptor (P04629 whole entry): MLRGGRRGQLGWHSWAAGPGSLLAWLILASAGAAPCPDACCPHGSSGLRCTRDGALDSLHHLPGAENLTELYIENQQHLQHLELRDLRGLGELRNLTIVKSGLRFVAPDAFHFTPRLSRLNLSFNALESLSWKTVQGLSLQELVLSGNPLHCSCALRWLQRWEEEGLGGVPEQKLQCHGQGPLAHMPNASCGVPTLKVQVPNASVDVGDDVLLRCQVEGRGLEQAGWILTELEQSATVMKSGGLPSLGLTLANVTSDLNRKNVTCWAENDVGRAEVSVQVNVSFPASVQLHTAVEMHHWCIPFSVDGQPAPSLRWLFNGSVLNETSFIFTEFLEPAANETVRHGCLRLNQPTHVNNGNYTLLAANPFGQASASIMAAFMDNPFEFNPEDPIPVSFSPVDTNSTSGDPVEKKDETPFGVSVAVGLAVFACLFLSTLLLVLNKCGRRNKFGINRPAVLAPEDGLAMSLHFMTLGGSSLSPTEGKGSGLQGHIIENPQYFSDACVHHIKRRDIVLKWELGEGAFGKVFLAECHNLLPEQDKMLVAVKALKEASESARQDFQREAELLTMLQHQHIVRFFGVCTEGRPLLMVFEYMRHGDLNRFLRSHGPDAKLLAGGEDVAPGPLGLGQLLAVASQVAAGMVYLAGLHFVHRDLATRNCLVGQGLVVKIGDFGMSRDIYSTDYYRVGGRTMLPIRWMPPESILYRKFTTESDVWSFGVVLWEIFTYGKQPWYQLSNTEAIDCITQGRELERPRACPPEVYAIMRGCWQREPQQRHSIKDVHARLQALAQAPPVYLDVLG

[6] = biological target: Cyclin-dependent kinase 17 (Homo sapiens, UniProt Q00537)
Sequence of Cyclin-dependent kinase 17 (Q00537 whole entry): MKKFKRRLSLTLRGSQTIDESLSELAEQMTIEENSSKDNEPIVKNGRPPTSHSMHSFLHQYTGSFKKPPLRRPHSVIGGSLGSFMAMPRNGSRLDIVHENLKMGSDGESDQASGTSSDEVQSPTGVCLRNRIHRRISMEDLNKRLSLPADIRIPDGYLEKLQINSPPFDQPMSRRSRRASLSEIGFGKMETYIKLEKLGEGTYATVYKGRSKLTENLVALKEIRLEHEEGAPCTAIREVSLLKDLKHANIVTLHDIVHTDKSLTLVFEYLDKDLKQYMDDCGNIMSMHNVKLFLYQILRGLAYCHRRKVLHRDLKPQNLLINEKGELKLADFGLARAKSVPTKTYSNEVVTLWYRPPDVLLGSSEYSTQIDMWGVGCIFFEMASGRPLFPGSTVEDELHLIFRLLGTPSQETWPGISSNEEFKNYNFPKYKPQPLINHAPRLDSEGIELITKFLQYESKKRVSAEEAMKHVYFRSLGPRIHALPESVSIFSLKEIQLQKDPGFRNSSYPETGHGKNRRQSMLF

Ephrin type-A receptor 1 = biological target: T1, Ephrin type-A receptor 1 (Homo sapiens, UniProt P21709)
T1 sequence (P21709 whole entry): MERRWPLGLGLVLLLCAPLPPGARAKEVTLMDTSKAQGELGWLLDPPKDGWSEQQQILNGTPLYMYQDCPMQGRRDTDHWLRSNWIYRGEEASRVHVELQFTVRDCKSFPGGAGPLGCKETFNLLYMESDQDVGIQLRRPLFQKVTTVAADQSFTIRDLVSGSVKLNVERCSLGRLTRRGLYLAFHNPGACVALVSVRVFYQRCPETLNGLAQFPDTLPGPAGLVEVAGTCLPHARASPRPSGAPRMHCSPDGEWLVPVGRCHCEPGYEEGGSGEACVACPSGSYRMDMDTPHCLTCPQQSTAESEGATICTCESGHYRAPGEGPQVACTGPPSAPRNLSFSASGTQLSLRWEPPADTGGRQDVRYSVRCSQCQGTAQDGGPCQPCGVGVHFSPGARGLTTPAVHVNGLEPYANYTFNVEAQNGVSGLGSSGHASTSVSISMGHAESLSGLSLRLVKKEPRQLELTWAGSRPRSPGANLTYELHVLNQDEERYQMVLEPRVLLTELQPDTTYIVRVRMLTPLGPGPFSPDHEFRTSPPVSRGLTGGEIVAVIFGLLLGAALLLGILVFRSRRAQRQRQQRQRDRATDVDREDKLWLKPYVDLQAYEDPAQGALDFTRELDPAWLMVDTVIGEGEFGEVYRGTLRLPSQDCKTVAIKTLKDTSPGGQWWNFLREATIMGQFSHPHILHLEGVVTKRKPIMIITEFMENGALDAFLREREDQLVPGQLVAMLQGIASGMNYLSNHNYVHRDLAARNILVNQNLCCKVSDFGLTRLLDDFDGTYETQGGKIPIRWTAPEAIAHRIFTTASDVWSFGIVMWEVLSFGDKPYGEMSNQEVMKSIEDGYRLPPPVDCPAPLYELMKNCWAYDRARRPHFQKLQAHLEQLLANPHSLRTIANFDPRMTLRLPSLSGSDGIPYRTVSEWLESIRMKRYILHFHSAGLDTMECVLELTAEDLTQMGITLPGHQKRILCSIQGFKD

[7] = biological target: T2, Phosphatidylinositol 5-phosphate 4-kinase type-2 alpha (Homo sapiens, UniProt P48426)
T2 sequence (P48426 whole entry): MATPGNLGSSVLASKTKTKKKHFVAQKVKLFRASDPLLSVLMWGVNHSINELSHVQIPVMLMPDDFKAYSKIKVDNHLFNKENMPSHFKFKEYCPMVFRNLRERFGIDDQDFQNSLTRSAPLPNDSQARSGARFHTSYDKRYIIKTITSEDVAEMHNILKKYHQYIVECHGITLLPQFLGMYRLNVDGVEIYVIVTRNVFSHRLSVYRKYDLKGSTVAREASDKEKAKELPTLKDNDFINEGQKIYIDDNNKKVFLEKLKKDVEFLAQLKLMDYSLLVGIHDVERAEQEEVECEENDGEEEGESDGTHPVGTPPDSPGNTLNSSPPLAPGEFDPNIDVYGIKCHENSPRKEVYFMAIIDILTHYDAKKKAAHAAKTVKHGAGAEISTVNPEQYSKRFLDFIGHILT

Myosin-10 = Myosin-10 (Homo sapiens, UniProt P35580)
[8] = biological target: T3, Dual specificity mitogen-activated protein kinase kinase 4 (Homo sapiens, UniProt P45985)
T3 sequence (P45985 whole entry): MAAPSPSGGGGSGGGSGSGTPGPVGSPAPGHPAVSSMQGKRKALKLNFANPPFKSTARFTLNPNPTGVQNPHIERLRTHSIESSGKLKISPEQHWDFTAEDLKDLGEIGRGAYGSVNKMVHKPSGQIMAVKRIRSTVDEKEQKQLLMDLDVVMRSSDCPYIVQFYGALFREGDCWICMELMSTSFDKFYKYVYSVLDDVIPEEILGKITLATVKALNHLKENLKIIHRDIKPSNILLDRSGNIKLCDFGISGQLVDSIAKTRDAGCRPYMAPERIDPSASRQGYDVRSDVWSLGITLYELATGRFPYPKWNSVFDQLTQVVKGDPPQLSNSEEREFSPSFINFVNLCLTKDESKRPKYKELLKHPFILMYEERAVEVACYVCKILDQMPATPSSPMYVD

[9] = biological target: Dual specificity protein kinase CLK4 (Homo sapiens, UniProt Q9HAZ1)
Sequence of Dual specificity protein kinase CLK4 (Q9HAZ1 whole entry): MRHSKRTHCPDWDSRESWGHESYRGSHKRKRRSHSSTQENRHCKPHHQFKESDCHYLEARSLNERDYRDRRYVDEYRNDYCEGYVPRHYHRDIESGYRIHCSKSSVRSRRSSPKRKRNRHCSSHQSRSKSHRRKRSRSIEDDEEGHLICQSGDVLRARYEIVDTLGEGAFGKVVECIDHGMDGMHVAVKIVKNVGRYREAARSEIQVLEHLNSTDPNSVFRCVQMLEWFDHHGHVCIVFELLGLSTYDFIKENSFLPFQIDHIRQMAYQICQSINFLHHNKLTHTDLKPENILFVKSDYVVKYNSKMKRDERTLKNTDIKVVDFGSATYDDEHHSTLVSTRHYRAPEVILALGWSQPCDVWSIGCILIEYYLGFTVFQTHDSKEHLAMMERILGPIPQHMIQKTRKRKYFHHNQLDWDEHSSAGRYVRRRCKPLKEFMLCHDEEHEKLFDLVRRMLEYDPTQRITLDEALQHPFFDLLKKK

[10] = biological target: Serine/threonine-protein kinase 38 (Homo sapiens, UniProt Q15208)
Sequence of Serine/threonine-protein kinase 38 (Q15208 whole entry): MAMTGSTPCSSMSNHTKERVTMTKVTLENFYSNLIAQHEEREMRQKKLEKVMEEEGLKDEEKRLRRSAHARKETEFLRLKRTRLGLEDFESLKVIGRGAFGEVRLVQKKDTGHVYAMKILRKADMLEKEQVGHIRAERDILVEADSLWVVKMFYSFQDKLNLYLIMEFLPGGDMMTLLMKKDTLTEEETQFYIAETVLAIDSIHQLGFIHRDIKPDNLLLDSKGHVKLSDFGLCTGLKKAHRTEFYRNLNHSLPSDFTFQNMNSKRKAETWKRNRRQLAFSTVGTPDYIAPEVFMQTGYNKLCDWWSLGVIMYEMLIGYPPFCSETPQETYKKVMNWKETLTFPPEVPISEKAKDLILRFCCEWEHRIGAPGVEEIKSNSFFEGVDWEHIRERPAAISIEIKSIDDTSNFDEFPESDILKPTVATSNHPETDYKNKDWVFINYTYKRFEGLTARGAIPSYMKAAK

UMP-CMP kinase = biological target: T4, UMP-CMP kinase (Homo sapiens, UniProt P30085)
T4 sequence (P30085 whole entry): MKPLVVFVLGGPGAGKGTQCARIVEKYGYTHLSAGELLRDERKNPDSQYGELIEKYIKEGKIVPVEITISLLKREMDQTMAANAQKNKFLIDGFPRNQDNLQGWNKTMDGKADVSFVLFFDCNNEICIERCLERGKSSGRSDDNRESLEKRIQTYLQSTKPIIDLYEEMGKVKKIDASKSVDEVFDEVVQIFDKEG
Note: in the data inactive means no Kd found up to 30 µM.

Sequence of Serine/threonine-protein kinase 24 (Q9Y6E0 whole entry): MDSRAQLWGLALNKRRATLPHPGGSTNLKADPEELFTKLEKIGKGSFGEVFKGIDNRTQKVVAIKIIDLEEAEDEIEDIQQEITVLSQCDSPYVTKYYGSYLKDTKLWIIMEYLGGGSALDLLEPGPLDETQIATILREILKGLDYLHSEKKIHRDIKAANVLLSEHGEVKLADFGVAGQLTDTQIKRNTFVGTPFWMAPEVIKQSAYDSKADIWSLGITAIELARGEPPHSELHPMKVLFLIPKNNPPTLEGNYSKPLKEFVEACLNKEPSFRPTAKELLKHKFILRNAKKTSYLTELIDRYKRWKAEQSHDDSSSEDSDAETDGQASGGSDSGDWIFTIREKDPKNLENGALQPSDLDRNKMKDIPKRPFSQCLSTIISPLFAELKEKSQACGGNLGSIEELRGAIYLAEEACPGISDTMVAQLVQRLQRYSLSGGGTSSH
Sequence of MAP kinase-activated protein kinase 3 (Q16644 whole entry): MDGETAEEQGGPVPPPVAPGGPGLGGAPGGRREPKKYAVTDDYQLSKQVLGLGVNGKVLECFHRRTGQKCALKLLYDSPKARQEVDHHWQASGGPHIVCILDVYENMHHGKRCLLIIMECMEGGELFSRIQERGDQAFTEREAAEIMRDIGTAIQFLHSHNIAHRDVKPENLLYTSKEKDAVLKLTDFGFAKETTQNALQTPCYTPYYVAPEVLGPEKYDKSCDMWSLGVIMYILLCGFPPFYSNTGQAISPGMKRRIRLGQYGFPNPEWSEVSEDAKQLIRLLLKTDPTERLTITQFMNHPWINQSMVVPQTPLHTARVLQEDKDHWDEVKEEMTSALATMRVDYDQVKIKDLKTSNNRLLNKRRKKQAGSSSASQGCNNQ
Sequence of G protein-coupled receptor kinase 6 (P43250 whole entry): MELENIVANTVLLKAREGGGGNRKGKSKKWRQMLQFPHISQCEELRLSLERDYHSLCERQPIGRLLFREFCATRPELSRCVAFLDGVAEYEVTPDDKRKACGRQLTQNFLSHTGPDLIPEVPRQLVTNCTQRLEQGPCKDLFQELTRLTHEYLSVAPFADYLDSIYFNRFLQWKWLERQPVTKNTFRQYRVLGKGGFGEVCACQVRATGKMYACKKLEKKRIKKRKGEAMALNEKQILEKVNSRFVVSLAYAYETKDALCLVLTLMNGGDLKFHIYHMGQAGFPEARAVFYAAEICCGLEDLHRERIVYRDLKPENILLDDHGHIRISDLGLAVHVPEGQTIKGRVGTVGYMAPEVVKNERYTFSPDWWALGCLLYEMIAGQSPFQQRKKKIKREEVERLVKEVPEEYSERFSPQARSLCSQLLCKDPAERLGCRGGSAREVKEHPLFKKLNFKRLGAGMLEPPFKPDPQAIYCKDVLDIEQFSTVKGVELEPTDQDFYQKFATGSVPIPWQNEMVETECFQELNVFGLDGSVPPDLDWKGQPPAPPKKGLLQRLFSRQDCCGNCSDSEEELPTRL
Sequence of Serine/threonine-protein kinase pim-2 (Q9P1W9 whole entry): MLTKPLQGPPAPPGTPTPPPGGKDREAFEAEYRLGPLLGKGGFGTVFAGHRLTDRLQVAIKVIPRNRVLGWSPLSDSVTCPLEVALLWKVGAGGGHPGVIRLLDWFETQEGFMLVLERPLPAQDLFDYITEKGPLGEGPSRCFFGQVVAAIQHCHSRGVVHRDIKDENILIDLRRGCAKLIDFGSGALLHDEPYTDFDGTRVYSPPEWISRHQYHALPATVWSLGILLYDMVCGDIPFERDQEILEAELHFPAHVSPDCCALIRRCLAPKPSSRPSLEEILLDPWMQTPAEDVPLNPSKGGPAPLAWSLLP

Kd [1] | Kd [2] | Kd [3] | Kd [4] | Kd [5] | Kd [6] | Kd (Ephrin type-A receptor 1) | Kd [7] | Kd (Myosin-10) | Kd [8] | Kd [9] | Kd [10] | Kd (UMP-CMP kinase) | Structure (SMILES)
> 30 µM (inactive) | > 30 µM (inactive) | > 30 µM (inactive) | > 30 µM (inactive) | > 30 µM (inactive) | > 30 µM (inactive) | > 30 µM (inactive) | – | – | – | – | – | – | CCN1CCN(Cc2ccc(-c3cc4c(N[C@H](C)c5ccccc5)ncnc4[nH]3)cc2)CC1 [AEE-788]
> 30 µM (inactive) | > 30 µM (inactive) | – | > 30 µM (inactive) | – | > 30 µM (inactive) | – | > 30 µM (inactive) | > 30 µM (inactive) | > 30 µM (inactive) | > 30 µM (inactive) | – | – | CNS(=O)(=O)Nc1nccc(Cc2c(C)c3ccc(Oc4ncccn4)cc3oc2=O)c1F [AVUTOMETINIB]
> 30 µM (inactive) | – | – | – | > 30 µM (inactive) | > 30 µM (inactive) | > 30 µM (inactive) | > 30 µM (inactive) | – | – | – | > 30 µM (inactive) | – | C[C@@H](Nc1cc(F)cc(F)c1)c1cc(C(=O)N(C)C)cc2c(=O)cc(N3CCOCC3)oc12 [AZD-8186]
> 30 µM (inactive) | – | > 30 µM (inactive) | > 30 µM (inactive) | – | > 30 µM (inactive) | > 30 µM (inactive) | > 30 µM (inactive) | > 30 µM (inactive) | – | > 30 µM (inactive) | – | > 30 µM (inactive) | COc1cc2nccc(Oc3ccc(NC(=O)NC4CC4)c(Cl)c3)c2cc1C(N)=O [LENVATINIB]
> 30 µM (inactive) | > 30 µM (inactive) | – | – | > 30 µM (inactive) | – | > 30 µM (inactive) | > 30 µM (inactive) | – | – | – | > 30 µM (inactive) | > 30 µM (inactive) | Cn1cc(-c2ccc(F)c(C(F)(F)F)c2)nc1C1CCN(c2ncnc3[nH]ncc23)CC1 [LY-2584702]
> 30 µM (inactive) | > 30 µM (inactive) | > 30 µM (inactive) | – | 2.25 µM | > 30 µM (inactive) | > 30 µM (inactive) | > 30 µM (inactive) | > 30 µM (inactive) | – | > 30 µM (inactive) | > 30 µM (inactive) | > 30 µM (inactive) | COc1cc(CCc2cc(NC(=O)c3ccc(N4C[C@@H](C)N[C@@H](C)C4)cc3)n[nH]2)cc(OC)c1 [AZD-4547]
> 30 µM (inactive) | – | > 30 µM (inactive) | > 30 µM (inactive) | > 30 µM (inactive) | > 30 µM (inactive) | > 30 µM (inactive) | > 30 µM (inactive) | > 30 µM (inactive) | – | – | – | > 30 µM (inactive) | CN1CCC(CNc2ccc3ncc(-c4cccc(OC(F)(F)F)c4)n3n2)CC1 [SGI-1776]
0.011 µM | > 30 µM (inactive) | > 30 µM (inactive) | – | > 30 µM (inactive) | > 30 µM (inactive) | > 30 µM (inactive) | > 30 µM (inactive) | – | – | – | > 30 µM (inactive) | – | Cc1c(F)cc(C(=O)NC2CC2)cc1-c1ccc(C(=O)NCC(C)(C)C)cn1 [LOSMAPIMOD]
> 30 µM (inactive) | > 30 µM (inactive) | > 30 µM (inactive) | > 30 µM (inactive) | > 30 µM (inactive) | > 30 µM (inactive) | > 30 µM (inactive) | > 30 µM (inactive) | > 30 µM (inactive) | > 30 µM (inactive) | > 30 µM (inactive) | – | > 30 µM (inactive) | COCCNCc1ccc(-c2cc3nccc(Oc4ccc(NC(=S)NC(=O)Cc5ccc(F)cc5)cc4F)c3s2)nc1 [GLESATINIB]

Structure (SMILES) | Kd [1] | Kd [2] | Kd [3] | Kd [4] | Kd [5] | Kd [6] | Kd (Ephrin type-A receptor 1) | Kd [7] | Kd (Myosin-10) | Kd [8] | Kd [9] | Kd [10] | Kd (UMP-CMP kinase)
C=CC(=O)N1CCC(Oc2cc3c(Nc4ccc(Cl)c(Cl)c4F)ncnc3cc2OC)CC1 [POZIOTINIB] | > 30 µM (inactive) | – | > 30 µM (inactive) | – | > 30 µM (inactive) | > 30 µM (inactive) | – | – | – | – | – | > 30 µM (inactive) | –
O=C(c1ccc(F)c(F)c1Nc1ccc(I)cc1F)N1CC(O)([C@@H]2CCCCN2)C1 [COBIMETINIB] | > 30 µM (inactive) | – | – | > 30 µM (inactive) | > 30 µM (inactive) | > 30 µM (inactive) | > 30 µM (inactive) | > 30 µM (inactive) | – | > 30 µM (inactive) | > 30 µM (inactive) | – | –
